Drawing on ChEMBL document CHEMBL1201862, “PubChem BioAssay data set” (2004), this text covers EC50 and AC50 for 47 compounds.

The structures appear in SMILES notation. Calls of active or inactive are those of the source. Rule as the data show it, for most assays here: actives have a measured EC50 and inactives only a lower limit.

The nature of experiment [1]: cytotoxicity toward NIH3T3 fibroblasts, dose response, counter-screen, cell-based, ATP luminescence, mouse fibroblasts (AID 2010).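 Also: cells exposed to compound for about 90 hours before reading.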 It is filed as functional. Background: The purpose of a counterscreen is to sort out artefacts and off-target activity.
Experiment [2] can be described thus: inhibitors of intracellular T. cruzi replication, confirmation, NIH3T3 host cells, beta-gal luminescence (AID 2044).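 Also: intracellular parasites grown in NIH/3T3 mouse fibroblasts as host cells; luminescent beta-galactosidase reporter signal from transgenic T. cruzi replicating inside host cells; inhibitors lower the luminescence signal.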 It is filed as functional, cell-based.
Experiment [3] is described as follows: Luminescence Cell-Based Dose Response HTS to Identify Activators of Luciferase Translation or Activity in H4 […] Cells. [Related pubchem assays: 1829 (Project Summary), 1814 (Primary HTS)]. The experiment is classed as functional.
Experiment [4] in a line: Luminescence Cell-Based Dose Confirmation HTS to Identify Activators of 5'UTR Stem-Loop Driven Alpha-Synuclein mRNA Translation in H4 Neuroglioblastoma Cells. [Related pubchem assays: 1829 (Project Summary), 1814 (Primary HTS)]. The experiment is classed as functional.
A further experiment concerns H4. Nature of the experiment: Luminescence Cell-Based Dose Response HTS to Identify Activators of 5'UTR Stem-Loop Driven Prion Protein mRNA Translation in H4 Neuroglioblastoma Cells. [Related pubchem assays: 1829 (Project Summary), 1814 (Primary HTS)]. As to conditions: Homo sapiens. The experiment is classed as functional.
In experiment [5] the target is T1, Corticotropin-releasing factor receptor 2/Corticotropin-releasing factor-binding protein (Homo sapiens, UniProt P24387+Q13324).
T1 sequence (Q13324 whole entry): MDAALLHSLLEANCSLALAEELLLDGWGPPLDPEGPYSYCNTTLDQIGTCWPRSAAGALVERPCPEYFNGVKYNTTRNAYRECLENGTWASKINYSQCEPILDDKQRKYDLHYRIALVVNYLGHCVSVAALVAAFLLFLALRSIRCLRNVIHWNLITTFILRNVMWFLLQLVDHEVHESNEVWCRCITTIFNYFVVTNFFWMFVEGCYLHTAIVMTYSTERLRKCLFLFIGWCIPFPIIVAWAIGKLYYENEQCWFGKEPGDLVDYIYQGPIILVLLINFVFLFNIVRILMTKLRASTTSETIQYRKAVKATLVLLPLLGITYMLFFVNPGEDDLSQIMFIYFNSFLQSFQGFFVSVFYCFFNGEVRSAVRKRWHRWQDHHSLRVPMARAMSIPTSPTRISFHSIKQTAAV
T1 sequence (P24387 whole entry): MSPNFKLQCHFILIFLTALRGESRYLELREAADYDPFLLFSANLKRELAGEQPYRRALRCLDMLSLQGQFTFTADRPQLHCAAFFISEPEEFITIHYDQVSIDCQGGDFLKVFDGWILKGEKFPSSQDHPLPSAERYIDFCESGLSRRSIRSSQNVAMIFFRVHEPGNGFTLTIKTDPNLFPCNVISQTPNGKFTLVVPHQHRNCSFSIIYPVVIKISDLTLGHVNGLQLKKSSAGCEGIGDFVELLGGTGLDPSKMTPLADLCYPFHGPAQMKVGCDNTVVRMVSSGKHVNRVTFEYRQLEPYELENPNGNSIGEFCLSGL
Nature of the experiment: activators of CRF receptor 2 with binding protein – uHTS hits, confirmation (AID 602473). The experiment is classed as functional. The note with it: read-out: EC50_Mean.

For a further experiment, the target named is Cytochrome P450 2C9 (Homo sapiens, UniProt P11712).
Cytochrome P450 2C9, sequence (P11712 whole entry): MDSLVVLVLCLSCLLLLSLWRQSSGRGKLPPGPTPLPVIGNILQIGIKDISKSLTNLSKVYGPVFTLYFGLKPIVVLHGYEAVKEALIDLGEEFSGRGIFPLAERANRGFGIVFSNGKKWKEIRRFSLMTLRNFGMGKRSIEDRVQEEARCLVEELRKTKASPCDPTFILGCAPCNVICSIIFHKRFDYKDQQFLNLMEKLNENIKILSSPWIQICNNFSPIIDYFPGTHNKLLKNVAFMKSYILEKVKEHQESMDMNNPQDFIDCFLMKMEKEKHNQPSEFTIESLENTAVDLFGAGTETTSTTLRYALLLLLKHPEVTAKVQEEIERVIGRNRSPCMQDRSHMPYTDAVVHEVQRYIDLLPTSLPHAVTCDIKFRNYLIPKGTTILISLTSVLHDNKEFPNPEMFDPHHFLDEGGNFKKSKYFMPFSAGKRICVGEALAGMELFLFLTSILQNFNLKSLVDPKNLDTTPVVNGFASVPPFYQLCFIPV

In the case of `O=C(Nc1ccc(-n2ccc(C(F)(F)F)n2)cc1)Nc1cccc(Cl)c1`, the EC50 is 6.82 µM (active) in experiment [1] and 2.01 µM (active) in experiment [2].

With `COc1cc2cc3c(N)c(C(=O)NCc4ccco4)sc3nc2cc1OC`, the results for the EC50 (in experiment [3]; in experiment [4]; in the experiment on H4) were 49.9 µM (active), 73.7 µM (active) and 11.1 µM (active), respectively.

Regarding `COc1cccc(CC2(CO)CCCN(Cc3cc4ccccc4[nH]3)C2)c1` (stereo not drawn), the EC50 was 18.1 µM (active) in experiment [5], > 60 µM (not active) in experiment [1] and 0.834 µM (active) in experiment [2].

On to `CCOC(=O)c1sc(N(Cc2ccccc2)C(=O)CN2C(=O)CN(C)C2=O)nc1C`, for which, on Cytochrome P450 2C9, the AC50 is 11.2 µM (inconclusive).

For the compound `Cc1cc(C)c(C)c(C(=O)CSc2nnc(-c3ccc4[nH]c(C)c(C)c4c3)o2)c1C`, the EC50 is > 60 µM (not active) in experiment [1] and 1.61 µM (active) in experiment [2].

For `N=C(NOC(=O)C1CCCCC1)c1ccc(Br)cc1`, the EC50 in experiment [3] was 28.7 µM (active); in experiment [4], 27.6 µM (active); with H4, 1.23 µM (active).

Consider `Cn1c(=O)c(-c2cccs2)nc2cnc(Oc3ccccc3)nc21`, for which, at Cytochrome P450 2C9, the AC50 was 20 µM (inconclusive).

`Cc1ccc(-c2nn(-c3ccccc3)cc2C(=O)Nc2ccc(C)c(S(=O)(=O)N3CCOCC3)c2)cc1`: the EC50 was > 120 µM (not active) in experiment [3]; > 120 µM (not active) in experiment [4]; > 60 µM (not active) in experiment [1]; 1.57 µM (active) in experiment [2]; > 120 µM (not active) in the experiment with H4.

As for `Cn1c(C(=O)NCc2cccnc2)cc2sc(Cl)cc21`, the EC50 in experiment [1] was > 60 µM (not active); in experiment [2], 0.488 µM (active).

With `COc1ccc2c(c1OC)CN1CCc3cc4c(cc3C1C2)OCO4` (stereo not drawn) [TETRAHYDROBERBERINE], the EC50 in experiment [1] is > 60 µM (not active); in experiment [2], 3.43 µM (active).

On to `Cc1cccc(CNc2ncncc2-c2cccc(NS(C)(=O)=O)c2)c1`, for which the AC50 at Cytochrome P450 2C9 was 1 µM (inconclusive).

For `CSCCC(=O)Nc1cc(S(=O)(=O)N2CCOCC2)ccc1N1CCN(C)CC1`, the EC50 in experiment [1] is > 60 µM (not active); in experiment [2], 1.94 µM (active).

As to `Oc1nc2cc3c(cc2cc1C(c1nnnn1C1CCCCC1)N1CCSCC1)OCCO3` (stereo not drawn), the EC50 in experiment [5] was > 53 µM (inactive).

Regarding `Cc1ccnc(NC(=O)CCCNC(=O)c2ccc(Cl)cc2)c1`, the EC50 in experiment [3] was 24.3 µM (active); in experiment [4] it was 18.2 µM (active); in the experiment with H4 it was 51.9 µM (active).

Regarding `CCCCOC(=O)c1[nH]c(C)c(C(=O)OC)c1C`, the EC50 in experiment [3] is 51.1 µM (active); in experiment [4] it was 2.88 µM (active); with H4, 37.7 µM (active).

Regarding `c1ccc(-c2cc(-c3nc4ccccc4[nH]3)c3ccccc3n2)cc1`, the values for the EC50 in experiment [1] and in experiment [2] were > 60 µM (not active) and 1.7 µM (active), respectively.

As to `O=C(c1cnccn1)N1CCC2(CC1)CN(c1ccncc1)C2`, the concentration at half-maximal activity (AC50) at Cytochrome P450 2C9 is 25.1 µM (inconclusive).

Regarding `CCCOc1cccc(CN2CCCCC2c2cccnc2)c1` (stereo not drawn), the results for the EC50 in experiment [1] and in experiment [2] were > 60 µM (not active) and 1.53 µM (active), respectively.

As for `COc1ccc2cc(C(=O)NCC3CCCO3)[nH]c2c1` (stereo not drawn), the EC50 was 22.9 µM (active) in experiment [3] and 7.02 µM (active) in experiment [4].

As to `CNC(=S)N1CCN(c2cccc(OC)c2)CC1`, the AC50 at Cytochrome P450 2C9 was 22.4 µM (inconclusive).

`Cc1cc(C)c2c(CN3CCC(C)CC3)cc(=O)oc2c1`: the EC50 is > 120 µM (not active) in experiment [3], 0.419 µM (active) in experiment [4] and 26.3 µM (active) with H4.

On to `CC1=CC(C)(C)N2C(=O)C3(C(C#N)=C(N)Oc4cc(C)oc(=O)c43)c3cc(C)cc1c32` (stereo not drawn), for which the EC50 in experiment [1] was > 60 µM (not active); in experiment [2], 0.253 µM (active).

With `CC(=O)c1cn(CCCCCCCCCCn2cc(C(C)=O)c(=O)[nH]c2=O)c(=O)[nH]c1=O`, on Cytochrome P450 2C9, the AC50 is 3.16 µM (inconclusive).

For the compound `O=[N+]([O-])c1cccc(-c2nnn(C34CC5CC(CC(C5)C3)C4)n2)c1`, the EC50 is 7.38 µM (active) in experiment [3], > 120 µM (not active) in experiment [4] and 15 µM (active) in the experiment with H4.

On to `COc1ccc(NC(=N)Nc2nc(C)cc(C)n2)cc1`, for which, in experiment [5], the EC50 is 13.5 µM (active).

For the compound `CN(C(=O)c1cccc(N2C(=O)C3C4C=CC(C4)C3C2=O)c1)C1CCCCC1` (stereo not drawn), the EC50 (in experiment [3]; in experiment [4]; in the experiment with H4) was > 120 µM (not active) each time.

Turning to `CC(C)c1ccc(CNc2ccc3c(c2)ncn3C)cc1`, the EC50 in experiment [3] was 0.228 µM (inconclusive); in experiment [4], 0.217 µM (active); in the experiment on H4, > 120 µM (not active).

Consider `CC(C)c1ccc(NC(=O)N2CCc3ccccc3C2)cc1`, for which the results for the EC50 (in experiment [3]; in experiment [4]; in the experiment on H4) were 12.2 µM (active), 12.1 µM (active) and 18.3 µM (active), respectively.

Regarding `Cc1ccc(-c2nc3ccccc3n3nnnc23)cc1`, the EC50 in experiment [3] is 10.1 µM (active); in experiment [4], 0.363 µM (active); in the experiment with H4 it was 4.81 µM (active).

On to `CC1C(=O)OC2C1CCC1(C)CCC(=O)C(C)C21` (stereo not drawn), for which the EC50 in experiment [1] was > 60 µM (not active); in experiment [2], 2.61 µM (active).

For `NC(=O)NCc1ccc(Cl)cc1`, the AC50 on Cytochrome P450 2C9 was 0.0501 µM (inconclusive).

As to `Brc1ccccc1C1CC(c2ccccc2)=Nc2ccccc2N1` (stereo not drawn), the values for the EC50 (in experiment [3]; in experiment [4]; with H4) were 11.5 µM (active), 9.58 µM (active) and 36.5 µM (active), respectively.

Turning to `CC1(C)OC2OC(COC(=O)c3ccccc3)C3OC(C)(C)OC3C2O1` (stereo not drawn), the EC50 is 10.1 µM (active) in experiment [3], 15.5 µM (active) in experiment [4] and 17.3 µM (active) with H4.

For the compound `Cc1cccc(N2CCN(C(c3ccncc3)c3nnnn3C(C)(C)C)CC2)c1C` (stereo not drawn), the EC50 is > 60 µM (not active) in experiment [1] and 2.57 µM (active) in experiment [2].

As to `CCOCCCN1C(=O)CN(C2CCCCC2)C(=O)C1c1ccc(OCC)c(OC)c1` (stereo not drawn), the AC50 at Cytochrome P450 2C9 was 11.2 µM (inconclusive).

For the compound `CCOc1ccc(/C=C/C(=O)C(C(N)=O)=C2SCCS2)cc1`, the EC50 in experiment [3] is > 120 µM (not active); in experiment [4], 1.98 µM (active); with H4 it was 7.17 µM (active).

As for `O=C(/C=C/c1ccc([N+](=O)[O-])s1)N1CCN(c2ccccc2)CC1`, the EC50 in experiment [1] is 9.18 µM (active); in experiment [2], 1.81 µM (active).

`NC(=O)c1ccccc1Nc1nc2nc3ccccc3c(=O)n2cc1Br`: the results for the EC50 (in experiment [3]; in experiment [4]; in the experiment on H4) were 8.23 µM (active), > 120 µM (not active) and > 120 µM (not active), respectively.

For `CCOc1ccc(C(=O)Nc2c(C(=O)N3CCC(N4CCCCC4)CC3)oc3ccccc23)cc1`, the EC50 in experiment [1] was > 60 µM (not active); in experiment [2], 6.28 µM (active).

Take `N#Cc1c(N)n(Cc2ccccc2)c(=O)c2cc([N+](=O)[O-])ccc12`: the EC50 in experiment [1] was > 60 µM (not active); in experiment [2], 1.41 µM (active).

Take `COc1ccc2[nH]c3c(c2c1)CN(C)CC3`: the half-maximal activity concentration (AC50) on Cytochrome P450 2C9 is 39.8 µM (inconclusive).

Take `Cc1cc(Oc2ccccc2)nc(NCc2ccccc2)n1`: the AC50 on Cytochrome P450 2C9 is 10 µM (inconclusive).

In the case of `O=C(NCCCn1ccnc1)c1sc2cccc(F)c2c1Cl`, the EC50 in experiment [1] is > 60 µM (not active); in experiment [2] it was 2.02 µM (active).

Turning to `Cc1ccc(C2NC(=O)c3c(sc(C)c3C)N2)c(O)c1` (stereo not drawn), the results for the EC50 (in experiment [3]; in experiment [4]; in the experiment on H4) were 22.4 µM (active), 3.83 µM (active) and 21.7 µM (active), respectively.

Regarding `CCc1ccc(NC(=O)C(C)OC(=O)/C=C/c2ccc(O)c(OC)c2)cc1` (stereo not drawn), the EC50 in experiment [5] is 5.63 µM (active).

Consider `CN(C)c1ccc(/C=C2\Oc3ccc(C#Cc4cccc(N)c4)cc3C2=O)cc1`, for which, in experiment [5], the EC50 is 5.04 µM (active).

Regarding `Cc1ccc(CNC(=O)c2cccc3c2C(=O)c2ccc(N4CCCCC4)cc2S3(=O)=O)cc1`, the EC50 in experiment [5] was 6.87 µM (active).

As a reminder, the AC50 is the midpoint of the concentration-response curve, whichever way the signal moves.
